From patent US20200317784A1, “METHODS AND COMPOSITIONS FOR TREATING CANCER BY MODIFYING MULTIPLE ARMS OF THE IMMUNE SYSTEM” (BioXcel Therapeutics, Inc., priority 2017, published 2020)

Assays:
[1] = system: Ly6G+ cells (tumoricidal neutrophils); experiment: IHC of neutrophil infiltrate in Pan02 tumor samples; settings: Day 8; compared to vehicle and PD-1 antagonist alone
Procedure: Tumor samples from the study groups were analyzed for infiltration of immune cells. […] The data was analyzed using GraphPad Prism 5. p<0.05 was statistically significant (*, p<0.05; **, p<0.01; ***, p<0.001).

[2] = system: Pan02 tumor cells; experiment: Anti-tumor efficacy in Pan02 syngeneic mouse model of pancreatic carcinoma; format: in vivo; settings: Pan02 s.c., C57BL/6 mice
Excerpt: Six to eight-week-old female C57BL/6 mice were used in the studies as supplied by Beijing Vital River Laboratory Animal Technology Co., Ltd. Mice received food and water ad libitum. The study protocol and the procedures involving the care and use of animals were reviewed and approved by the Institutional Animal Care and Use Committee (IACUC) to ensure compliance with the regulations of the Association for Assessment and Accreditation of Laboratory Animal Care (AAALAC).
Stock solutions of the PD-1 antagonist at 1 mg/ml concentrations were prepared and kept at 4° C. prior to use. Dosing solutions of the PD-1 antagonist were prepared freshly at a concentration of 1 mg/ml before every administration in sterile phosphate buffered saline (PBS), adjusted to pH 7.0, and administered at a dose of 10 mg/kg intraperitoneally (i.p) per 20 g mouse. […] Talabostat mesylate was obtained from a commercial source, and prepared freshly at a working concentration of 0.1 mg/ml before every administration in sterile phosphate buffered saline (pH 7.0), maintained at 4° C., and administered perorally (p.o.) at a total dose of 20 μg per 20 g mouse.
The tumor cells were routinely sub-cultured twice per week bytrypsin-EDTA treatment. The cells in anexponential growth phase were harvested and counted for tumor inoculation. […] The date of tumor cell inoculation was denoted as Day 0.
The dosing of the agents was started on day 5 after tumor inoculation and continued until Day 28 after tumor inoculation.
Body weight (in grams), and tumor volumes (in mm^3) were measured on Days 5, 8, 12, 15, 19, 22, 26 and 29. […] Tumor volume, expressed in mm^3, was measured with a calliper.
Data related to tumor volume are presented as mean and the standard error of the mean (SEM). Statistical analyses were conducted using Student's t-test. P<0.05 and P<0.001 were considered statistically significant.
% Tumor reduction=(Mean tumor volume^vehicle control−Mean tumor volume^treatmet_group)/Mean tumor volume^vehicle control×100Table 1B. Results

[3] = system: melanoma; settings: melanoma patients; Postow et al. 2015; cited from earlier work

Row | Molecule | Ly6G+ cells in tumor (IHC) [1] | % Tumor Reduction compared to vehicle control ([2]; Day 19 after tumor inoculation) [%] | % Tumor Reduction compared to vehicle control ([2]; Day 22 after tumor inoculation) [%] | % Tumor Reduction compared to vehicle control ([2]; Day 26 after tumor inoculation) [%] | % Tumor Reduction compared to vehicle control ([2]; Day 29 after tumor inoculation) [%] | response rate [3] [%]
1 | CC(C)[C@H](N)C(=O)N1CCC[C@H]1B(O)O.CS(=O)(=O)O [Talabostat mesylate, [(2R)-1-[(2S)-2-amino-3-methylbutanoyl]pyrrolidin-2-yl]boronic acid; methanesulfonic acid] | significant increase | 61.23 | 58.18 | 65.42 | 65.61 | 
2 | ipilimumab: human monoclonal anti-CTLA-4 antibody |  |  |  |  |  | 11
3 | nivolumab |  |  |  |  |  | 32
